In experiment [1] the test system is murine macrophage J774A.1 cells. The experiment in a line: Nitric oxide assay (Griess): inhibition of LPS-induced NO production. Type of experiment: cell-based. The settings on record: purified re-synthesized leads; 10 ng/ml LPS stimulation, 16 h; read-out: NO inhibition in murine J774 cells IC50 value. On the procedure:
Assessment of neutralization of LPS toxicity: NO inhibition activity. Murine monocytes (J774.A1 cells) produce measurable quantities of NO upon exposure to LPS and provide a high-throughput and validated model for the rapid and quantitative assessment of compounds in neutralizing the toxicity of LPS.^81;82;94 Compounds that neutralize LPS inhibit NO production in a dose-dependent manner from which 50% inhibitory concentrations (IC50) were determined (FIG. 4). The analogs determined to have the highest affinity in the BC-binding assay are then assayed in this NO inhibition assay (Table 1). Results in this assay parallel those in the binding assay (FIG. 5). Nitric Oxide Assay. Nitric oxide production is measured as total nitrite in murine macrophage J774A.1 cells using the Griess assay^96 as described previously.^94 J774A.1 cells are plated at ˜10^5/ml in a volume of 40 μl/well, in 384-well, flat-bottomed, cell culture treated microtiter plates and subsequently stimulated with 10 ng/ml lipopolysaccharide (LPS). Concurrent to LPS stimulation, serially diluted concentrations of test compounds are added to the cell medium and left to incubate overnight for 16 h. Polymyxin B is used as reference compound in each plate. Positive- (LPS stimulation only) and negative-controls (J774A. 1 medium only) are included in each experiment. Nitrite concentrations are measured by adding 40 μl of supernatant to equal volumes of Griess reagents ([…]; 0.1% NED solution in ddH2O and 1% sulfanilamide, 5% phosphoric acid solution in ddH2O) and incubating for 15 minutes at room temperature in the dark. Absorbance at 535 nm is measured using a Molecular Devices Spectramax M2 multifunction plate reader (Sunnyvale, Calif.). Nitrite concentrations are interpolated from standard curves obtained from serially diluted sodium nitrite standards.

A short description of experiment [2]: BODIPY-TR-cadaverine (BC) fluorescence displacement assay for LPS binding affinity. The following applies: purified re-synthesized leads; half-maximal effective displacement of probe; 50 mM Tris buffer, pH 7.4; read-out: Binding affinity (BC displacement) ED50 value. An excerpt: Quantitative Estimation of LPS Binding Affinity. The relative binding affinities of the entire library of analogs with a recently-described high-throughput fluorescence based displacement assay, is examined using BODIPY-TR cadaverine (BC).^81;82 Results are reported as half-maximal effective displacement of probe (ED50). In all experiments, Polymyxin B (PMB), a decapeptide antibiotic, known to bind and neutralize LPS,^83–86 is used as a reference compound.
Rapid-throughput Fluorescence Displacement Assay for quantifying binding affinities to LPS. The BODIPY-TR-cadaverine (BC; (5-(((4-(4,4-difluoro-5-(2-thienyl)-4-bora-3a,4a-diaza-s-indacene-3-yl) phenoxy)acetyl)amino)pentylamine, hydrochloride; obtained from Molecular probes, Inc., Eugene, Oreg.) displacement assay to quantify the affinities of binding of compounds to LPS has been described in detail recently.^81 This assay is performed in a rapid-throughput format as follows: the first column (16 wells) of a Corning Nonbinding Surface 384-well flat-bottom black fluorescence microplate contain 15 test compounds plus polymyxin B, all at 5 mM in DMSO, and are serially diluted two-fold in 50 mM Tris buffer, pH 7.4, across the remaining 23 columns, achieving a final dilution of 0.596 nM in a volume of 40 μl. Polymyxin B (PMB), a peptide antibiotic known to bind and neutralize LPS^95 serve as the positive control and reference compound for every plate, enabling the quantitative assessment of repeatability and reproducibility (CV and Z′ factors) for the assay. Automated liquid handling is performed on a Precision 2000 automated microplate pipetting system, programmed using the Precision Power software, Bio-Tek Instruments Inc., VT, USA.

This passage reports IC50 and EC50 results from patent US7199267B1, “Recognition of oligiosaccaride molecular targets by polycationic small molecule inhibitors and treatment of immunological disorders and infectious diseases” (MediQuest Therapeutics, Inc., priority 2005, dated 2007).

The structures appear in SMILES notation.

What is called IC50 is the concentration needed to halve the response being measured. For the molecule `CCCCCCCCCCCCCCCCCCNCC(=O)NC(Cc1ccccc1)C(=O)NCCOCCN` (centres unmarked) [compound 1002], the IC50 in experiment [1] was 17.6 µM. Also, the EC50 in experiment [2] came out at 12.4 µM.
Regarding `CCCCCCCCCCCCCCCCCCNCCC(=O)NC(Cc1ccccc1)C(=O)NCCOCCN` (centres unmarked) [compound 1007], in experiment [1], the IC50 was 2.79 µM. In experiment [2], the EC50 amounted to 2.54 µM.
The corresponding values for `CCCCCCCCCCCCCCCCCCNCCCC(=O)NC(Cc1ccccc1)C(=O)NCCOCCN` (centres unmarked) [compound 1012] are 3.78 µM and 7.68 µM.
The corresponding values for `CCCCCCCCCCCCCCCCCCNCC(=O)NC(Cc1cnc[nH]1)C(=O)NCCOCCN` (centres unmarked) [compound 1032] are 1.64 µM and 13.1 µM.
The corresponding values for `CCCCCCCCCCCCCCCCCCNCCC(=O)NC(Cc1cnc[nH]1)C(=O)NCCOCCN` (centres unmarked) [compound 1037] are 1.88 µM and 3.17 µM.
Regarding `CCCCCCCCCCCCCCCCCCNCCCC(=O)NC(Cc1cnc[nH]1)C(=O)NCCOCCN` (centres unmarked) [compound 1042], in experiment [1], the half-maximal inhibitory concentration (IC50) came out at 1.86 µM. Moreover, in experiment [2], the EC50 was found to be 5.38 µM.
The corresponding values for `CCCCCCCCCCCCCCCCCCNCC(=O)NCC(=O)NCCOCCN` [compound 1047] are 11.5 µM and 14 µM.
Regarding `CCCCCCCCCCCCCCCCCCNCCC(=O)NCC(=O)NCCOCCN` [compound 1052], in experiment [1], the IC50 stood at 1.84 µM. Further, the EC50 in experiment [2] was determined as 14.2 µM.
Consider `CCCCCCCCCCCCCCCCCCNCCCC(=O)NCC(=O)NCCOCCN` [compound 1057], for which the concentration for half-maximal inhibition (IC50) in experiment [1] was found to be 3.33 µM. In addition, the EC50 in experiment [2] is 10.8 µM.
Consider `CCCCCCCCCCCCCCCCCCNCC(=O)NC(Cc1ccccc1)C(=O)NCCCN` (centres unmarked) [compound 1092], for which the IC50 in experiment [1] was found to be 6.74 µM. Besides, the EC50 in experiment [2] was 8.8 µM.
For the molecule `CCCCCCCCCCCCCCCCCCNCCC(=O)NC(Cc1ccccc1)C(=O)NCCCN` (centres unmarked) [compound 1097], in experiment [1], the IC50 came out at 8.7 µM. In addition, the EC50 in experiment [2] stood at 4.13 µM.
The corresponding values for `CCCCCCCCCCCCCCCCCCNCCCC(=O)NC(Cc1ccccc1)C(=O)NCCCN` (centres unmarked) [compound 1102] are 3.42 µM and 5.75 µM.
On to `CCCCCCCCCCCCCCCCCCNCC(=O)NC(Cc1cnc[nH]1)C(=O)NCCCN` (centres unmarked) [compound 1122], for which the IC50 in experiment [1] is 6.9 µM. In addition, in experiment [2], the EC50 was found to be 4.87 µM.
`CCCCCCCCCCCCCCCCCCNCCC(=O)NC(Cc1cnc[nH]1)C(=O)NCCCN` (centres unmarked) [compound 1127]: in experiment [1], the IC50 was determined as 8.06 µM. In experiment [2], the EC50 came out at 6.86 µM.
In the same order, the values of `CCCCCCCCCCCCCCCCCCNCCCC(=O)NC(Cc1cnc[nH]1)C(=O)NCCCN` (centres unmarked) [compound 1132] are 1.83 µM and 3.01 µM.
On to `CCCCCCCCCCCCCCCCCCNCC(=O)NCC(=O)NCCCN` [compound 1137], for which the IC50 in experiment [1] amounted to 7.94 µM. The EC50 in experiment [2] turned out to be 6.61 µM.
The corresponding values for `CCCCCCCCCCCCCCCCCCNCCC(=O)NCC(=O)NCCCN` [compound 1142] are 5.26 µM and 2420 µM.
As to `CCCCCCCCCCCCCCCCCCNCCCC(=O)NCC(=O)NCCCN` [compound 1147], the IC50 in experiment [1] turned out to be 6.57 µM. The EC50 in experiment [2] amounted to 6.14 µM.
The corresponding values for `CCCCCCCCCCCCCCCCCCNCCC(=O)NC(Cc1ccccc1)C(=O)NCCCCCN` (centres unmarked) [compound 1187] are 4.88 µM and 3850 µM.
For `CCCCCCCCCCCCCCCCCCNCCCC(=O)NC(Cc1ccccc1)C(=O)NCCCCCN` (centres unmarked) [compound 1192], the IC50 in experiment [1] stood at 4.8 µM. Besides, the EC50 in experiment [2] is 7.51 µM.
In the case of `CCCCCCCCCCCCCCCCCCNCC(=O)NC(Cc1cnc[nH]1)C(=O)NCCCCCN` (centres unmarked) [compound 1212], in experiment [1], the IC50 amounted to 2.04 µM. Further, in experiment [2], the EC50 is 12.1 µM.
For the molecule `CCCCCCCCCCCCCCCCCCNCCCC(=O)NC(Cc1cnc[nH]1)C(=O)NCCCCCN` (centres unmarked) [compound 1222], in experiment [1], the half-inhibitory concentration (IC50) is 0.9 µM. Also, the EC50 in experiment [2] was determined as 18.7 µM.
In the same order, the values of `CCCCCCCCCCCCCCCCCCNCC(=O)NCC(=O)NCCCCCN` [compound 1227] are 3.27 µM and 28.2 µM.
On to `CCCCCCCCCCCCCCCCCCNCCC(=O)NCC(=O)NCCCCCN` [compound 1232], for which the IC50 in experiment [1] was 4.61 µM. For the same molecule, in experiment [2], the EC50 worked out at 11.2 µM.
In the case of `CCCCCCCCCCCCCCCCCCNCCCC(=O)NCC(=O)NCCCCCN` [compound 1237], the IC50 in experiment [1] worked out at 3.22 µM. For the same molecule, in experiment [2], the EC50 was 9.77 µM.
On to `CCCCCCCCCCCCCCCCCCNCC(=O)NCCCN` [compound 2322], for which the IC50 in experiment [1] came to 5.56 µM. The EC50 in experiment [2] came out at 3.8 µM.
For `CCCCCCCCCCCCCCCCCCNCCC(=O)NCCCN` [compound 2323], in experiment [1], the IC50 came out at 7.49 µM. Moreover, in experiment [2], the EC50 worked out at 9.92 µM.
The corresponding values for `CCCCCCCCCCCCCCCCCCNCCCC(=O)NCCCN` [compound 2324] are 4.87 µM and 6.21 µM.
For `CCCCCCCCCCCCCCCCCCNCC(=O)NCCCCCN` [compound 2325], in experiment [1], the IC50 was found to be 3.96 µM. Moreover, the EC50 in experiment [2] is 8.74 µM.
`CCCCCCCCCCCCCCCCCCNCC(=O)NCCOCCN` [compound 2326]: the IC50 in experiment [1] turned out to be 9.73 µM. Further, the EC50 in experiment [2] is 12.2 µM.
The corresponding values for `CCCCCCCCCCCCCCCCCCNCCC(=O)NCCCCCN` [compound 2327] are 1.08 µM and 4.03 µM.
Take `CCCCCCCCCCCCCCCCCCNCCC(=O)NCCOCCN` [compound 2328]: in experiment [1], the 50% inhibitory concentration (IC50) turned out to be 6.54 µM. Moreover, the EC50 in experiment [2] came to 9.16 µM.
For the molecule `CCCCCCCCCCCCCCCCCCNCCCC(=O)NCCCCCN` [compound 2329], the IC50 in experiment [1] was 2.07 µM. Besides, the EC50 in experiment [2] worked out at 7.61 µM.
Regarding `CCCCCCCCCCCCCCCCCCNCCCC(=O)NCCOCCN` [compound 2330], the IC50 in experiment [1] worked out at 5 µM. The EC50 in experiment [2] is 5.73 µM.
